“And” between values parts separate entries of the source, which are not always exact repeats. Equal values may be shown once. Numbered stars: 1 amine (or outer) side, 2 acyl side, 3 side chain; on linkers, the order of the positions; unused ones are H or OH. Bridge positions count the residues as written; N and C are the ends. Square brackets hold non-standard residues; d marks the D form. Ends that are not written are not given here. Peptide text beside a SMILES is read from it. * marks the point of attachment. DOTA = O=C(O)CN1CCN(CC(=O)O)CCN(CC(=O)*)CCN(CC(=O)O)CC1; d2Nal(3S-Me) = C[C@@H](c1ccc2ccccc2c1)[C@@H](N)C(=O)O; X1 = C[C@H](c1ccc2ccccc2c1)[C@H](N[*:1])C(=O)[*:2]; Phe(4-NH2) = Nc1ccc(C[C@H](N)C(=O)O)cc1; 2Nal = N[C@@H](Cc1ccc2ccccc2c1)C(=O)O; X2 = NC(=O)N[C@@H](CS[*:2])C(=O)[*:1]; GABA = NCCCC(=O)O
Experiments:
Assay in all cases: Displacement of 125I-[Leu8,D-Trp22,Tyr25]SRIF-28 from cloned receptor, membrane pellet autoradiography
Format in all cases: binding
hSSTR4 = target: T1, hSSTR4 (Homo sapiens, UniProt P31391); settings: for IC50: inhibition of 125I-SRIF-28 radioligand binding, cloned human receptor
T1 construct: expressed in transfected cells; host or cells: CHO-K1 cells and CCL39 cells
Procedure: (§1) In vitro Bioassay: The effects of the various somatostatin analogs are tested in vitro for their ability to bind to isolated cloned receptors expressed on CHO-K1 cells and CCL39 cells. CHO-K1 cells are grown in Ham's F-12 medium, and CCL39 cells are grown in Dulbecco's modified Eagle's medium/Ham's F-12(1:1) mix, supplemented with 10% fetal bovine serum, 100 U/ml penicillin and 100 μg/ml streptomycin, in humidified air containing 5% CO2 at 37° C.
(§2) Cells are washed twice with and scraped into ice-cold 0.05 M Tris-HCl (pH 7.4), collected by centrifugation, and homogenized using a rotor/stator/system in the same buffer. After centrifugation at 120 g for 5 min at 4° C., the supernatant is collected and centrifuged again at 48,000 g for 30 min at 4° C. The resulting pellet is resuspended in ice-cold Tris buffer, transferred into a microfuge tube, and centrifuged at 20,000 g for 15 min at 4° C. After withdrawal of the supernatant, the membrane pellet is stored at −80° C.
(§3) Receptor autoradiography is performed on 20 μm thick cryostat sections of the membrane pellets, mounted on microscope slides, and then stored at −20° C. […] Increasing concentrations of the unlabeled peptide are used ranging from 0.1-1000 nM. […] IC50 values are calculated after quantification of the data using a computer-assisted image processing system as known in this art.
(§4) The numbers in parentheses indicate the number of times the particular binding test was carried out.

hSSTR1 = target: T2, hSSTR1 (Homo sapiens, UniProt P30872); settings: inhibition of 125I-SRIF-28 radioligand binding, cloned human receptor
T2 construct: expressed in transfected cells; host or cells: CHO-K1 cells and CCL39 cells
Procedure: as §1, §2
Receptor autoradiography is performed on 20 μm thick cryostat sections of the membrane pellets, mounted on microscope slides, and then stored at −20° C. […] […] […] IC50 values are calculated after quantification of the data using a computer-assisted image processing system as known in this art.
as §4

hSSTR2 = target: T3, hSSTR2 (Homo sapiens, UniProt P30874); settings: inhibition of 125I-SRIF-28 radioligand binding, cloned human receptor
T3 construct: expressed in transfected cells; host or cells: CHO-K1 cells and CCL39 cells
Procedure: as §1, §2, §3, §4

T2 sequence (P30872 whole entry): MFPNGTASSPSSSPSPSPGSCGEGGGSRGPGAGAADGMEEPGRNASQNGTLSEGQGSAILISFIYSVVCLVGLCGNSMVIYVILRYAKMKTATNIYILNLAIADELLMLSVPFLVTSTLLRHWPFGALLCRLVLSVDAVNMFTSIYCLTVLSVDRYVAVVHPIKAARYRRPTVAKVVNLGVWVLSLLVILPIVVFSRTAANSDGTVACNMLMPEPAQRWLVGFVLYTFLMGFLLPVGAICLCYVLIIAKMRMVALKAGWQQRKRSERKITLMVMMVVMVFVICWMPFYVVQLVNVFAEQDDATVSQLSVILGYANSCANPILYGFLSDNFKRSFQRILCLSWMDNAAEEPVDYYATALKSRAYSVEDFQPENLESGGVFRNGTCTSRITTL
T1 sequence (P31391 whole entry): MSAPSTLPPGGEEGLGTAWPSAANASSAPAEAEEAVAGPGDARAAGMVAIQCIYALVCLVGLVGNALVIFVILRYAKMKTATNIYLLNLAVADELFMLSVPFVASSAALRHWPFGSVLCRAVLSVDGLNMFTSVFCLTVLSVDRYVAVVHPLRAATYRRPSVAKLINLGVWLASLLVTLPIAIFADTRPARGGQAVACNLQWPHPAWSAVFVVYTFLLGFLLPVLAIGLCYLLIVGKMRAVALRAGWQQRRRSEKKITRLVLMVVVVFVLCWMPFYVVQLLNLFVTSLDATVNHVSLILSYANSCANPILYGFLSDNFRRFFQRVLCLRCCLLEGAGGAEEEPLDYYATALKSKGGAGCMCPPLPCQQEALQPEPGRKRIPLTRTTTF
T3 sequence (P30874 whole entry): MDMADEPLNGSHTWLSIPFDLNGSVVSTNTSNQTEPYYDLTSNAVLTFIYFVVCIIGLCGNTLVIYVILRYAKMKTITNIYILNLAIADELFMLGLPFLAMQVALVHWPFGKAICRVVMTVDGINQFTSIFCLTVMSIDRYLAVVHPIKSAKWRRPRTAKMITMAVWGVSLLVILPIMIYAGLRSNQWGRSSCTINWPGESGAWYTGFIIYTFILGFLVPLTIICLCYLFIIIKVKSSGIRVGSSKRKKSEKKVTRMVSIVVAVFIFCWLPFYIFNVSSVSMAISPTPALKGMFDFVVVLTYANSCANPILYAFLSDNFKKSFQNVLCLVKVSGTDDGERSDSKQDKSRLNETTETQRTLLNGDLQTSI

Compound	selectivity in binding to SSTR4 compared with the other 4 receptors (in words) (hSSTR4)	IC50 (hSSTR4)	also measured
C[C@@H](O)[C@@H]1NC(=O)[C@H](CCCCN)NC(=O)[C@H](Cc2c[nH]c3ccccc23)NC(=O)[C@H](Cc2ccc(CN)cc2)NC(=O)[C@H](Cc2ccccc2)NC(=O)[C@@H](NC(=O)[C@H](Cc2ccc(O)cc2)NC(N)=O)CSSC[C@@H](C(=O)O)NC(=O)[C@H](Cc2ccccc2)NC1=O [Peptide No. 15A, (cyclo)Cbm-Tyr-Cys-Phe-Amp-Trp-Lys-Thr-Phe-Cys-OH]	–	–	IC50 (hSSTR1): > 1000 nM
(cyclo)H-Cys-Phe-Ala-Trp-Lys-Thr-Val-Cys-OH (H-CFAWKTVC-OH; disulfide 1-8 (inferred)) [Peptide 12E]	selective in binding to hSSTR4	–	–
C[C@@H](O)[C@@H]1NC(=O)[C@H](CCCCN)NC(=O)[C@@H](Cc2c[nH]c3ccccc23)NC(=O)[C@H](Cc2ccc(N)cc2)NC(=O)[C@H](Cc2ccccc2)NC(=O)[C@@H](NC(=O)[C@@H](N)Cc2ccc(O)cc2)CSSC[C@@H](C(=O)O)NC(=O)[C@H](Cc2ccccc2)NC1=O [Peptide No. 7, (cyclo)H-Tyr-Cys-Phe-4Aph-D-Trp-Lys-Thr-Phe-Cys-OH]	–	1.2 ± 0.3 nM	–
C[C@@H]1NC(=O)[C@H](Cc2ccccc2)NC(=O)[C@@H](NC(=O)CN2CCN(CC(=O)O)CCN(CC(=O)O)CCN(CC(=O)O)CC2)CSSC[C@@H](C(=O)O)NC(=O)[C@H](Cc2ccccc2)NC(=O)[C@H]([C@@H](C)O)NC(=O)[C@H](CCCCN)NC(=O)[C@H](Cc2c[nH]c3ccccc23)NC1=O [Peptide 12C] ({DOTA}-CFAWKTFC-OH; disulfide 1-8)	continues to show selectivity in binding to hSSTR4	–	–
C[C@@H](O)[C@@H]1NC(=O)[C@H](CCCCN)NC(=O)[C@H](Cc2ccc3ccccc3c2)NC(=O)[C@H](Cc2ccc(N)cc2)NC(=O)[C@H](Cc2ccccc2)NC(=O)[C@@H](N)CSSC[C@@H](C(=O)O)NC(=O)[C@H](Cc2ccccc2)NC1=O [Peptide No. 5, (cyclo)H-Cys-Phe-4Aph-2Nal-Lys-Thr-Phe-Cys-OH] (H-CF[Phe(4-NH2)][2Nal]KTFC-OH; disulfide 1-8)	–	–	IC50 (hSSTR2): > 1000 nM
(cyclo)H-Cys-Phe-Ala-Trp-Lys-Thr-Gly-Cys-OH (H-CFAWKTGC-OH; disulfide 1-8 (inferred)) [Peptide 12G]	selective in binding to hSSTR4	–	–
C[C@@H](O)[C@@H]1NC(=O)[C@H](CCCCN)NC(=O)[C@H](Cc2c[nH]c3ccccc23)NC(=O)[C@H](Cc2ccc(N)cc2)NC(=O)[C@H](Cc2ccccc2)NC(=O)[C@@H](NC(=O)[C@H](Cc2ccc(O)cc2)NC(N)=O)CSSC[C@@H](C(=O)O)NC(=O)[C@H](Cc2ccccc2)NC1=O [Peptide No. 8, (cyclo)Cbm-Tyr-Cys-Phe-4Aph-Trp-Lys-Thr-Phe-Cys-OH]	–	~1.2 nM and 1.2 nM	–
C[C@@H](O)[C@@H]1NC(=O)[C@H](CCCCN)NC(=O)[C@H](Cc2c[nH]c3ccccc23)NC(=O)[C@H](Cc2ccc(N)cc2)NC(=O)[C@H](Cc2ccccc2)NC(=O)[C@@H](N)CSSC[C@@H](C(=O)O)NC(=O)[C@H](Cc2ccc(O)cc2)NC1=O [Peptide No. 9, (cyclo)H-Cys-Phe-4Aph-Trp-Lys-Thr-Tyr-Cys-OH]	–	1.1 ± 0.2 nM	–
C[C@@H](O)[C@@H]1NC(=O)[C@H](CCCCN)NC(=O)[C@H](Cc2c[nH]c3ccccc23)NC(=O)[C@H](Cc2ccc(CN)cc2)NC(=O)[C@H](Cc2ccccc2)NC(=O)[C@@H](NC(=O)[C@@H](N)Cc2ccc(O)cc2)CSSC[C@@H](C(=O)O)NC(=O)[C@H](Cc2ccccc2)NC1=O [Peptide No. 15, (cyclo)H-Tyr-Cys-Phe-4 Amp-Trp-Lys-Thr-Phe-Cys-OH]	–	–	IC50 (hSSTR1): > 1000 nM
C[C@@H](O)[C@@H]1NC(=O)[C@H](CCCCN)NC(=O)[C@@H](Cc2c[nH]c3ccccc23)NC(=O)[C@H](Cc2ccc(N)cc2)NC(=O)[C@H](Cc2ccccc2)NC(=O)[C@@H](NC(N)=O)CSSC[C@@H](C(=O)O)NC(=O)[C@H](Cc2ccccc2)NC1=O [Peptide No. 4, (cyclo)Cbm-Cys-Phe-4Aph-D-Trp-Lys-Thr-Phe-Cys-OH] (F[Phe(4-NH2)][dW]KTFC-OH; linker N-7 via X2)	–	1.1 ± 0.2 nM	–
C[C@@H]1NC(=O)[C@H](Cc2ccccc2)NC(=O)[C@@H](NC(=O)CCCNC(=O)CN2CCN(CC(=O)O)CCN(CC(=O)O)CCN(CC(=O)O)CC2)CSSC[C@@H](C(=O)O)NC(=O)[C@H](Cc2ccccc2)NC(=O)[C@H]([C@@H](C)O)NC(=O)[C@H](CCCCN)NC(=O)[C@H](Cc2c[nH]c3ccccc23)NC1=O [Peptide 12D] ({DOTA-GABA}-CFAWKTFC-OH; disulfide 1-8)	continues to show selectivity in binding to hSSTR4	–	–

Second part, led by results:

selectivity in binding to SSTR4 compared with the other 4 receptors (in words) (hSSTR4)	IC50 (hSSTR4)	Compound	also measured
selectively binds to SSTR4	0.98 nM	C[C@@H]1NC(=O)[C@H](Cc2ccccc2)NC(=O)[C@@H](N)CSSC[C@@H](C(=O)O)NC(=O)[C@H](Cc2ccccc2)NC(=O)[C@H]([C@@H](C)O)NC(=O)[C@H](CCCCN)NC(=O)[C@@H](Cc2c[nH]c3ccccc23)NC1=O [Peptide No. 11, (cyclo)H-Cys-Phe-Ala-D-Trp-Lys-Thr-Phe-Cys-OH] (H-CFA[dW]KTFC-OH; disulfide 1-8)	–
–	3.5 ± 0.5 nM	C[C@H](c1ccc2ccccc2c1)[C@@H]1NC(=O)[C@H](Cc2ccc(O)cc2)NC(=O)[C@H](Cc2ccccc2)NC(=O)[C@H](N)CSSC[C@@H](C(=O)O)NC(=O)[C@H](Cc2ccccc2)NC(=O)[C@H]([C@@H](C)O)NC(=O)[C@H](CCCCN)NC1=O [Peptide No. 16A, (cyclo)H-D-Cys-Phe-Tyr-threo-(2S,3R)C^βMe-2Nal-Lys-Thr-Phe-Cys-OH] (H-[dC]FY[X1]KTFC-OH; disulfide 1-8)	selectivity for SSTR4 over the closest other receptor (hSSTR4): more than 100 times; IC50 (hSSTR1): > 10000 nM
show selectivity for binding to SSTR4	–	C[C@@H](O)[C@@H]1NC(=O)[C@H](CCCCN)NC(=O)[C@@H]([C@@H](C)c2ccc3ccccc3c2)NC(=O)[C@H](Cc2ccc(O)cc2)NC(=O)[C@H](Cc2ccccc2)NC(=O)[C@@H](N)CSSC[C@@H](C(=O)O)NC(=O)[C@H](Cc2ccccc2)NC1=O [Peptide No. 17, (cyclo)H-Cys-Phe-Tyr-threo-(2R,3S)C^βMe-2Nal-Lys-Thr-Phe-Cys-OH] (H-CFY[d2Nal(3S-Me)]KTFC-OH; disulfide 1-8)	–
show selectivity for binding to SSTR4	–	C[C@H](c1ccc2ccccc2c1)[C@@H]1NC(=O)[C@H](Cc2ccc(O)cc2)NC(=O)[C@H](Cc2ccccc2)NC(=O)[C@@H](N)CSSC[C@@H](C(=O)O)NC(=O)[C@H](Cc2ccccc2)NC(=O)[C@H]([C@@H](C)O)NC(=O)[C@H](CCCCN)NC1=O [Peptide No. 17A, (cyclo)H-Cys-Phe-Tyr-threo-(2S,3R)C^βMe-2Nal-Lys-Thr-Phe-Cys-OH] (H-CFY[X1]KTFC-OH; disulfide 1-8)	selectivity for SSTR4 over the closest other receptor (hSSTR4): ~100 times; IC50 (hSSTR1): > 1000 nM
–	~3.5 nM	C[C@@H]1NC(=O)[C@H](Cc2ccccc2)NC(=O)[C@@H](NC(=O)[C@@H](N)Cc2ccc(O)c(I)c2)CSSC[C@@H](C(=O)O)NC(=O)[C@H](Cc2ccccc2)NC(=O)[C@H]([C@@H](C)O)NC(=O)[C@H](CCCCN)NC(=O)[C@H](Cc2c[nH]c3ccccc23)NC1=O [Peptide No. 13A]	–
selective in binding to hSSTR4	–	(cyclo)Cys-Phe-Val-Trp-Lys-Thr-Val-Cys-OH (CFVWKTVC-OH; disulfide 1-8 (inferred)) [Peptide No. 12F]	–
selective in binding to hSSTR4	–	(cyclo)H-Cys-Phe-Val-D-Trp-Lys-Thr-Phe-Cys-OH (H-CFV[dW]KTFC-OH; disulfide 1-8; SMILES CC(C)[C@@H]1NC(=O)[C@H](Cc2ccccc2)NC(=O)[C@@H](N)CSSC[C@@H](C(=O)O)NC(=O)[C@H](Cc2ccccc2)NC(=O)[C@H]([C@@H](C)O)NC(=O)[C@H](CCCCN)NC(=O)[C@@H](Cc2c[nH]c3ccccc23)NC1=O) [Peptide 11A]	–
–	3.5 ± 0.8 nM	C[C@@H]1NC(=O)[C@H](Cc2ccccc2)NC(=O)[C@@H](N)CSSC[C@@H](C(=O)O)NC(=O)[C@H](C)NC(=O)[C@H]([C@@H](C)O)NC(=O)[C@H](CCCCN)NC(=O)[C@H](Cc2c[nH]c3ccccc23)NC1=O [Peptide No. 12A] (H-CFAWKTAC-OH; disulfide 1-8)	–
–	1.1 ± 0.2 nM	C[C@@H]1NC(=O)[C@H](Cc2ccccc2)NC(=O)[C@@H](NC(=O)[C@@H](N)Cc2ccc(O)cc2)CSSC[C@@H](C(=O)O)NC(=O)[C@H](Cc2ccccc2)NC(=O)[C@H]([C@@H](C)O)NC(=O)[C@H](CCCCN)NC(=O)[C@@H](Cc2c[nH]c3ccccc23)NC1=O [Peptide No. 14, (cyclo)H-Tyr-Cys-Phe-Ala-D-Trp-Lys-Thr-Phe-Cys-OH]	–
